The results in this text go back to BindingDB's records for doi:10.1021/jm00093a008 (Technical University of Denmark, 1992).

The IC50 is the midpoint of a concentration-inhibition curve.

Structures are written as SMILES.

One test is described as follows: Concentration inhibiting Clostridium histolyticum collagenase.
On to `COC1C(O[C@@H]2c3c(cc4c(c3O)C(=O)c3c(O)cccc3C4=O)C(=O)[C@@](C)(O)[C@H]2OC)OC(C)C(O)C1O` (stereo not given in full), for which the 50% inhibitory concentration (IC50) amounted to 0.37 µM. `COC1C(O[C@@H]2c3c(cc4c(c3O)C(=O)c3c(O)c(N(C)C)cc(N(C)C)c3C4=O)C(=O)[C@@](C)(O)[C@H]2OC)OC(C)C(O)C1O` (stereo not given in full) registered an IC50 above 100 µM. Still for that read-out and setting: then `COC1C(O[C@@H]2c3c(cc4c(c3O)C(=O)c3c(O)cccc3C4=O)C(=O)[C@](C)(O)[C@H]2OC)OC(C)C(O)C1O` (stereo not given in full), with 3 µM; and `COC1C(O[C@@H]2c3c(cc4c(c3O)C(=O)c3c(O)cccc3C4=O)C(=O)[C@@](C)(O)[C@H]2OC)OC(C)C(O)C1O[Si](C)(C)C(C)(C)C` (stereo not given in full), with 17 µM; and `COC1C(O[C@@H]2c3c(cc4c(c3O)C(=O)c3c(ccc(N(C)C)c3O)C4=O)C(=O)[C@@](C)(O)[C@H]2OC)OC(C)C(O)C1O` (stereo not given in full), with 2 µM.

The compound `CO[C@H]1[C@H](O)c2c(cc3c(c2O)C(=O)c2c(O)cccc2C3=O)C(=O)[C@@]1(C)O` gave an IC50 of 19 µM. Compound `CCOP(=O)(OCC)O[C@]1(C)C(=O)c2cc3c(c(O)c2[C@@H](OC2OC(C)C(O)C(O)C2OC)[C@@H]1OC)C(=O)c1c(O)cccc1C3=O` (stereo not given in full) yielded an IC50 of 0.22 µM. Same read-out and setting: then `COC1C(O[C@@H]2c3c(cc4c(c3O)C(=O)c3c(O)cccc3C4=O)C(=O)[C@@](C)(O)[C@H]2OC)OC(C)C(OC(C)=O)C1OC(C)=O` (stereo not given in full), with above 100 µM.

Compound `COC1C(C)OC(O[C@@H]2c3c(cc4c(c3O)C(=O)c3c(O)cccc3C4=O)C(=O)[C@@](C)(O)[C@H]2OC)C(OC)C1OC` (stereo not given in full) came in with an IC50 of 0.67 µM.

Assay in another test: as above
The source holds these as a separate data set.
For the compound `CC[C@@]1(O)C[C@H](O[C@H]2C[C@H](N(C)C)[C@H](O[C@H]3C[C@H](O)[C@H](O[C@H]4CCC(=O)[C@H](C)O4)[C@H](C)O3)[C@H](C)O2)c2c(cc3c(c2O)C(=O)c2c(O)cccc2C3=O)[C@H]1C(=O)OC` [ACLACINOMYCIN A], half-maximal inhibition (IC50) was put at 9.9 µM.
